In publication PMC4268884 (Nature communications, 2014):

Target: LRRK2 (Homo sapiens, UniProt Q5S007, G2019S)
Experiment: loss of constitutive phosphorylation in cells
Format: cell-based

Sequence of LRRK2 (Q5S007 whole entry G2019S): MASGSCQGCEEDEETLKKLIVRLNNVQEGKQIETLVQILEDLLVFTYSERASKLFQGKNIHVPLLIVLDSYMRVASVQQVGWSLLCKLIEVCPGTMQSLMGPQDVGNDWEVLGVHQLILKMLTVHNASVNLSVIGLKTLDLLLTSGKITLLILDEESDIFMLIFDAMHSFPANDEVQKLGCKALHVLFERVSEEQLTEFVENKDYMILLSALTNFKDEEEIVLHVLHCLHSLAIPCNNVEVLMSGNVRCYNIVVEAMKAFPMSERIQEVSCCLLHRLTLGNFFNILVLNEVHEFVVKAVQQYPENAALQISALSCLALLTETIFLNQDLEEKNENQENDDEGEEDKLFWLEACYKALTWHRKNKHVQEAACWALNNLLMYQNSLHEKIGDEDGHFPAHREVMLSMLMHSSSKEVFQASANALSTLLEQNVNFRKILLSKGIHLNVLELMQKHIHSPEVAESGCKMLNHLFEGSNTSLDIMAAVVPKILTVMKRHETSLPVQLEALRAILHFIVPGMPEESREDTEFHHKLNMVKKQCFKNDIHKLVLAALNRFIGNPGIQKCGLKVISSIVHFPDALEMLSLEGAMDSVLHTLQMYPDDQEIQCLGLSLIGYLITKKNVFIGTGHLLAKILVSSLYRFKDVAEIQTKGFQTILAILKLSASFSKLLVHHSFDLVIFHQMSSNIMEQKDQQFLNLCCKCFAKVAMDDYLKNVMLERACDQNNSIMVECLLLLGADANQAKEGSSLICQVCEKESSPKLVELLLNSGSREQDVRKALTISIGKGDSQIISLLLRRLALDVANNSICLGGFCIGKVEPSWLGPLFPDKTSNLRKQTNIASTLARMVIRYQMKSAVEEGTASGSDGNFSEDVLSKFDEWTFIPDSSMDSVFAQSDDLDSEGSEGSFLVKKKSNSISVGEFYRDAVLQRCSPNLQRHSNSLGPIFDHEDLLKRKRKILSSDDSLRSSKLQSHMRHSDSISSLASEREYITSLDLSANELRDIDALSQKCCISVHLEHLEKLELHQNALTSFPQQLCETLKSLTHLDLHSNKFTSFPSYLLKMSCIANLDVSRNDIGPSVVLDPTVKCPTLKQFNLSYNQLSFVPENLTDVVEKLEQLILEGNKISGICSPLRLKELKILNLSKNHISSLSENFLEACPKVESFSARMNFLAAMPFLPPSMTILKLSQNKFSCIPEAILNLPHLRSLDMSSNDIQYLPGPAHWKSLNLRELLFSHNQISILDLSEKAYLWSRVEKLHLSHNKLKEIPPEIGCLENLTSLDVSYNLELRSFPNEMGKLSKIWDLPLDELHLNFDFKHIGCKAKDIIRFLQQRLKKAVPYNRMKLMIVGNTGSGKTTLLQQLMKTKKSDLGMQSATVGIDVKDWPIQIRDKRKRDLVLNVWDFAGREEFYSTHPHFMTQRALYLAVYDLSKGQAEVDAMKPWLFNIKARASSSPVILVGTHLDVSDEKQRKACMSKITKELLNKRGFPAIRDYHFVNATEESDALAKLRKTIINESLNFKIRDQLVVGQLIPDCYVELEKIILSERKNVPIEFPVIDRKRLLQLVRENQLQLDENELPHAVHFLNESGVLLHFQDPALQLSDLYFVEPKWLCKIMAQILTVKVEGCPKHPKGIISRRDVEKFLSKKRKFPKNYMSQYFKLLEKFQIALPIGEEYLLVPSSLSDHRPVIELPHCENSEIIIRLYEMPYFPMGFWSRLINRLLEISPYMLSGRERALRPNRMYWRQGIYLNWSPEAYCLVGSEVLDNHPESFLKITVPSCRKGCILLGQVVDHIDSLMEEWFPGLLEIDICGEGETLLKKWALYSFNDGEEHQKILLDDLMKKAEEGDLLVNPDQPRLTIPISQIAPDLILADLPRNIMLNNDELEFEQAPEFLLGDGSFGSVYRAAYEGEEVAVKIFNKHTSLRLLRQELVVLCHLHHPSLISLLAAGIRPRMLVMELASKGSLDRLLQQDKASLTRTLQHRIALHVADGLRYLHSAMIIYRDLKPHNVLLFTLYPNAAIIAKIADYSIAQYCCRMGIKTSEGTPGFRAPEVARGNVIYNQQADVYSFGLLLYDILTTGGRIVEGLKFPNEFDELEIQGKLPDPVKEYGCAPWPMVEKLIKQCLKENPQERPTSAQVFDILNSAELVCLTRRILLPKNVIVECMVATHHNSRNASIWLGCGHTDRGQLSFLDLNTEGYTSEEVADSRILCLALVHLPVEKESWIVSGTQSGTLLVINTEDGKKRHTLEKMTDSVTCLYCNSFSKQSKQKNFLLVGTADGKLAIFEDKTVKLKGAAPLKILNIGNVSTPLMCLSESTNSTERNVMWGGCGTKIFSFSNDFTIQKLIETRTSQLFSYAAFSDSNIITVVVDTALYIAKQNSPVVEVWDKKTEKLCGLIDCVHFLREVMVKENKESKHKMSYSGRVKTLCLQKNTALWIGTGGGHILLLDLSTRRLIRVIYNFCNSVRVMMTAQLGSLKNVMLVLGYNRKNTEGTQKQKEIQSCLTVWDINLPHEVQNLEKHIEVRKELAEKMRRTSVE

COc1cc(C(=O)N2CCC(N3CCN(C)CC3)CC2)ccc1Nc1ncc2c(n1)N(C)c1ccccc1C(=O)N2C [LRRK2-IN1]
loss of constitutive phosphorylation in cells: The pathogenic G2019S mutation in the kinase domain is phosphorylated and sensitive to the effects of LRRK2-IN1
